Assay: molar heat capacity at constant pressure; wn = mass fraction of the nth substance listed
Settings: 101 kPa, Liquid, Small sample (50 mg) DSC

O=[N+]([O-])[O-].[Li+] [lithium nitrate] + O
molar heat capacity at constant pressure [J/K/mol]
Settings	303.15 K	313.15 K	323.15 K	333.15 K	343.15 K	353.15 K	363.15 K	373.15 K
w1 = 0.3	79.48	80.01	80.61	81.26	81.58	82.28	82.69	–
w1 = 0.35	78.8	79.55	80.5	81.18	81.76	82.27	82.93	–
w1 = 0.4	78.86	79.65	80.42	81.37	81.83	82.62	83.28	84.15
w1 = 0.45	80.9	81.5	81.79	82.23	82.71	83.71	84.98	86.11
w1 = 0.5	82.01	82.67	83.53	83.73	84.07	84.56	85.84	86.64
w1 = 0.55	83.66	84.48	84.72	84.66	85.17	86.18	87.3	88.09
w1 = 0.6	–	86.04	86.29	86.88	87.07	87.75	88.43	89.63

— the NIST ThermoML archive (doi:10.1021/je301084m)
